Measured values published in patent US20250034108A1, “SODIUM CHANNEL BLOCKERS” (NOVARTIS AG, priority 2023, published 2025).

molecular target: human Nav1.5 (Homo sapiens (Human), UniProt Q14524); assay: Qpatch automated patch-clamp, peak Nav1.5 current inhibition, 5-Hz AF-like assay (holding potential -85 mV); format: cell-based; details: CHO-K1 cells stably expressing human Nav1.5, Table 6, Examples 63-90, read-out: Nav1.5 IC50 (5 Hz, AF Rate)
Source text: Electrophysiology was used to measure the ionic currents in isolated living cells using automated patch-clamp recording, performed using an automated patch-clamp machine called Qpatch (Sophion Bioscience). Two different assay conditions were used to identify compounds with atrial-selective potential. The 5-Hz AF-like assay has more depolarized holding potential at −85 mV to mimic atrial resting membrane potential (RMP) and was used to identify compounds of strong rate-dependence. Active, rate-dependent compounds were then screened at 1 Hz (i.e., sinus rate) at the holding potential of −100 mV to mimic the ventricular scenario and help identify compounds with the largest potency separation or attenuation from the 5-Hz AF-like assay. Such compounds have the potential for treating AF without the QRS liability inherent to Class Ic drugs.
The sodium current conducted through a cell (via Nav1.5) or electrical signals were processed through a low-pass filter at 5 KHz, re-digitalized and acquired at 20 kHz. Series resistance was not compensated and leak subtraction was performed.
1 to 3 million Chinese Hamster Ovary cells (also known as CHO-K1) stably expressing human Nav1.5 were seeded into […] culture flasks with 25 mL medium (consisting of Gibco Dulbecco's Modified Eagle Medium as a base medium with 1% MEM non-essential amino acids, 400 μg/mL Geneticin, 5 μg/mL puromycin and 10% fetal bovine serum) 48-72 hours prior to the experiments. On the day of the experiment, cells were washed once with phosphate-buffered saline (also known as PBS; Gibco) detached with Detachin™ (Genlantis), and re-suspended in CHO—S-SFM II media (Gibco) at 200,000 cells/mL. The CHO—S-SFM II was replaced with assay solutions prior to the assays. Whole-cell currents were recorded at room temperature in the whole-cell configuration. The external aqueous assay solution (pH=7.4; Osm=307-315) contained the following (the concentration for each component is expressed in parentheses in mM): NaCl (140 mM), KCl (4 mM), CaCl2) (2 mM), MgCl2 (1 mM), 4-(2-hydroxyethyl)-1-piperazineethanesulfonic acid, also known as HEPES (10 mM), and glucose (5 mM). The internal aqueous assay solution (pH=7.2; Osm=292-295) contained the following (the concentration for each component is expressed in parentheses in mM): CsF (110 mM), CsCl (10 mM), NaCl (10 mM), HEPES (10 mM), and ethylene glycolbis(β-aminoethyl ether)-N,N,N′,N′-tetraacetic acid, also known as EGTA (10 mM).
To assess peak Nav1.5 current inhibition in an atrial fibrillation-mimicking condition (Nav1.5 IC50 (5 Hz, AF-like rate) (μM)), compounds were first prepared at 10 mM in DMSO, and cells were pre-incubated with test compounds at each concentration for 3 min. in an ascending order of 0, 0.37, 1.1, 3.3, 10 and 30 μM. An atrial action potential-like protocol consisting of a voltage ramp (+10 mV to −85 mV for a 150 ms duration and a holding potential at −85 mV) was then applied to cells at 5 Hz for 12 s until no further current change or inhibition was observed. The percent inhibition (expressed as ([Iafter compound treatment/Ibefore compound treatment]×100%) is calculated by normalizing the peak current amplitude at the last pulse of each of the 6 compound concentrations by the amplitude before exposure to the test compound. The compiled data was further normalized by vehicle control (DMSO) to account for Nav1.5 current run-down, and IC50 was calculated by Matlab (MathWorks, USA).

Sequence of human Nav1.5 (Q14524 whole entry): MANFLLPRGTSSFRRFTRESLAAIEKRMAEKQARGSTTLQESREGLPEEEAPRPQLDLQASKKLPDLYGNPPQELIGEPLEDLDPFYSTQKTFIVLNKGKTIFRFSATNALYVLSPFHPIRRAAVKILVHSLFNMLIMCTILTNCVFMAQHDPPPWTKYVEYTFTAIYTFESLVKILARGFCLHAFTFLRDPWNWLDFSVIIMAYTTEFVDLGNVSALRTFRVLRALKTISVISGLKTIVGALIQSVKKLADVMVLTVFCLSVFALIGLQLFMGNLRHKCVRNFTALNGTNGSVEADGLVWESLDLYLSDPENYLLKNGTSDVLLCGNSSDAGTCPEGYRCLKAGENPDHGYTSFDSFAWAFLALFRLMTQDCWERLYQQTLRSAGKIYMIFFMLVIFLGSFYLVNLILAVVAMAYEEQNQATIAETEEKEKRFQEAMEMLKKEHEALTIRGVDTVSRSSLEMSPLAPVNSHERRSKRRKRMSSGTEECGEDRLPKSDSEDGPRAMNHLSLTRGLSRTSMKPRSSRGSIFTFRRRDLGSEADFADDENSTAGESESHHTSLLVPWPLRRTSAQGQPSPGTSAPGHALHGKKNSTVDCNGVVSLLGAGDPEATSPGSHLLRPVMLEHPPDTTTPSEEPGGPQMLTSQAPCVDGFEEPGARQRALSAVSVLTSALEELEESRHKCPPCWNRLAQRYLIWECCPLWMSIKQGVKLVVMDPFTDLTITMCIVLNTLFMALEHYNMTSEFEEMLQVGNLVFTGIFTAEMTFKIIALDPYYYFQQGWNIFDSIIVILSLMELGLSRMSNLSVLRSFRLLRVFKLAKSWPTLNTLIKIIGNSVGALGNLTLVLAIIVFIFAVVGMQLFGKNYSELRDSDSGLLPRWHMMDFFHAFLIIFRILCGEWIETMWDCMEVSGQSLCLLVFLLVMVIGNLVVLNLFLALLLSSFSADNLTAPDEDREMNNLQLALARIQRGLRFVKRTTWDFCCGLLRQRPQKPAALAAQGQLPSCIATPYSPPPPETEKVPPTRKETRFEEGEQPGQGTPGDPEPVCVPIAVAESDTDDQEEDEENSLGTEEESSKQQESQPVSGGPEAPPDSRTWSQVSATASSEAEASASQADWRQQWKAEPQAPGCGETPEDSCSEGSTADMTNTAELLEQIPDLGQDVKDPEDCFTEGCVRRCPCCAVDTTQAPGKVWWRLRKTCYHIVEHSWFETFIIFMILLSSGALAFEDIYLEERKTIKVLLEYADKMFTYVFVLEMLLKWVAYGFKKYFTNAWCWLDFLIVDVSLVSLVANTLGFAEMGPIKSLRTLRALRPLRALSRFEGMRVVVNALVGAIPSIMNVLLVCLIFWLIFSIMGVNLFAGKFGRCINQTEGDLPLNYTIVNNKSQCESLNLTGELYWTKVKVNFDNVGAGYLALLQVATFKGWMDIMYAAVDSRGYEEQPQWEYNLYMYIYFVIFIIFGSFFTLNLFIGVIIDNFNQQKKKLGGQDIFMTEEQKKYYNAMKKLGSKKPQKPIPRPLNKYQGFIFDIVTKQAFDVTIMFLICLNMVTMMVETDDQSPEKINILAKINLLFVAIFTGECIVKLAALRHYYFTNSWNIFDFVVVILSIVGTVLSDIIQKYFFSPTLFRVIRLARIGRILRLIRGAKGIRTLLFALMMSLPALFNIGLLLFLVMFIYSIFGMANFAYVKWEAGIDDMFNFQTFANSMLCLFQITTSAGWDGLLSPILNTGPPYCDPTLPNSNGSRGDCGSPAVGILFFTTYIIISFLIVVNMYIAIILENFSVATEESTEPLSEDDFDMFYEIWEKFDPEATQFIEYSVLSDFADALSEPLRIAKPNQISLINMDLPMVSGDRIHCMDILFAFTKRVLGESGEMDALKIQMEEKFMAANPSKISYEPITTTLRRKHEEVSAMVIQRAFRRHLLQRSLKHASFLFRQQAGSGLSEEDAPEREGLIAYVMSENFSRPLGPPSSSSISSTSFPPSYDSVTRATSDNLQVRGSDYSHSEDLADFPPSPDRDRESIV

Compound | IC50 [µM]
Cc1ccc(F)c(Cn2nnc(-c3cccc([C@@](C)(O)CS(N)(=O)=O)n3)n2)c1Cl [Example 63] | 3.8
C[C@](O)(CS(N)(=O)=O)c1cccc(-c2nnn(Cc3cc(F)ccc3Br)n2)n1 [Example 64] | 13
C[C@](O)(CS(N)(=O)=O)c1cccc(-c2nnn(Cc3ccc(Br)cc3F)n2)n1 [Example 65] | 17
C[C@](O)(CS(N)(=O)=O)c1cccc(-c2nnn(Cc3cccc(Br)c3F)n2)n1 [Example 66] | 28
C[C@](O)(CS(N)(=O)=O)c1cccc(-c2nnn(Cc3c(F)cccc3Br)n2)n1 [Example 67] | 8.1
Cc1cc(C)c(C)c(Cn2nnc(-c3cccc([C@@](C)(O)CS(N)(=O)=O)n3)n2)c1 [Example 68] | 16
Cc1cccc(Cn2nnc(-c3cccc([C@@](C)(O)CS(N)(=O)=O)n3)n2)c1C [Example 69] | 11
C[C@](O)(CS(N)(=O)=O)c1cccc(-c2nnn(Cc3cccc(Cl)c3Cl)n2)n1 [Example 70] | 22
Cc1ccc(C(C)C)cc1Cn1nnc(-c2cccc([C@@](C)(O)CS(N)(=O)=O)n2)n1 [Example 72] | 7.3
C[C@](O)(CS(N)(=O)=O)c1cccc(-c2nnn(Cc3c(F)ccc(Cl)c3F)n2)n1 [Example 73] | 19
C[C@](O)(CS(N)(=O)=O)c1cccc(-c2nnn(Cc3cc(C(F)(F)F)ccc3Cl)n2)n1 [Example 74] | 21
C[C@](O)(CS(N)(=O)=O)c1cccc(-c2nnn(Cc3cccc(OC(F)(F)F)c3F)n2)n1 [Example 75] | 4.8
COc1ccc(F)c(Cn2nnc(-c3cccc([C@@](C)(O)CS(N)(=O)=O)n3)n2)c1 [Example 76] | 17

same assay, conditions: CHO-K1 cells stably expressing human Nav1.5, holding potential -85 mV, Table 5, read-out: Nav1.5 IC50 (5 Hz, AF Rate)

Compound | IC50 [µM]
3-(6-(1-(2-fluoro-5-(trifluoromethoxy)benzyl)-1H-pyrazol-3-yl)pyridin-2-yl)-3-hydroxy-2-methylbutane-2-sulfonamide [Example 54] | 4.2
CCC(O)(CS(N)(=O)=O)c1cccc(-c2ccn(Cc3cc(OC(F)(F)F)ccc3F)n2)n1 (racemic) [Example 35, 2-(6-(1-(2-fluoro-5-(trifluoromethoxy)benzyl)-1H-pyrazol-3-yl)pyridin-2-yl)-2-hydroxybutane-1-sulfonamide] | 4
NS(=O)(=O)CC(O)c1cccc(-c2nnn(Cc3cc(OC(F)(F)F)ccc3F)n2)n1 (racemic) [Example 48, 2-(6-(2-(2-fluoro-5-(trifluoromethoxy)benzyl)-2H-tetrazol-5-yl)pyridin-2-yl)-2-hydroxyethane-1-sulfonamide] | 5.5
CC(C)(C(O)c1cccc(-c2ccn(Cc3cc(OC(F)(F)F)ccc3F)n2)n1)S(N)(=O)=O (racemic) [Example 53, 1-(6-(1-(2-fluoro-5-(trifluoromethoxy)benzyl)-1H-pyrazol-3-yl)pyridin-2-yl)-1-hydroxy-2-methylpropane-2-sulfonamide] | 12
CC(O)(CS(N)(=O)=O)c1cccc(-c2nnn(Cc3cc(OC(F)(F)F)ccc3F)n2)n1 (racemic) [Rac-1 + 2, 2-(6-(2-(2-fluoro-5-(trifluoromethoxy)benzyl)-2H-tetrazol-5-yl)pyridin-2-yl)-2-hydroxypropane-1-sulfonamide] | 3.6
CC(O)(CS(N)(=O)=O)c1cccc(-c2nnn(Cc3c(F)ccc4c3OC(F)(F)O4)n2)n1 (racemic) [Rac-3 + 4, 2-hydroxy-2-(6-(2-((2,2,5-trifluorobenzo[d][1,3]dioxol-4-yl)methyl)-2H-tetrazol-5-yl)pyridin-2-yl)propane-1-sulfonamide] | 7
CC(O)(CS(N)(=O)=O)c1cccc(-c2nc(Cc3cc(OC(F)(F)F)ccc3F)no2)n1 (racemic) [Rac-57 + 58, 2-(6-(3-(2-fluoro-5-(trifluoromethoxy)benzyl)-1,2,4-oxadiazol-5-yl)pyridin-2-yl)-2-hydroxypropane-1-sulfonamide] | 3.7
CC(O)(CS(N)(=O)=O)c1cccc(-c2nnn(Cc3cc(F)ccc3F)n2)n1 (single isomer, unassigned) [Example 17, (R or S)-2-(6-(2-(2,5-difluorobenzyl)-2H-tetrazol-5-yl)pyridin-2-yl)-2-hydroxypropane-1-sulfonamide] | 24
CC(O)(CS(N)(=O)=O)c1cccc(-c2nnn(Cc3cc(F)ccc3F)n2)n1 (single isomer, unassigned) [Example 18, (R or S)-2-(6-(2-(2,5-difluorobenzyl)-2H-tetrazol-5-yl)pyridin-2-yl)-2-hydroxypropane-1-sulfonamide] | 20
CC(O)(CS(N)(=O)=O)c1cccc(-c2nnn(Cc3cc(OC(F)(F)F)ccc3F)n2)c1 (single isomer, unassigned) [Example 25, (R or S)-2-(3-(2-(2-fluoro-5-(trifluoromethoxy)benzyl)-2H-tetrazol-5-yl)phenyl)-2-hydroxypropane-1-sulfonamide] | 5.5
CC(O)(CS(N)(=O)=O)c1cccc(-c2nnn(Cc3cc(OC(F)(F)F)ccc3F)n2)c1 (single isomer, unassigned) [Example 26, (R or S)-2-(3-(2-(2-fluoro-5-(trifluoromethoxy)benzyl)-2H-tetrazol-5-yl)phenyl)-2-hydroxypropane-1-sulfonamide] | 1.8
CC(O)(CS(N)(=O)=O)c1cccc(-c2nnn(Cc3cc(OCC(F)(F)F)ccc3F)n2)n1 (single isomer, unassigned) [Example 29, (R or S)-2-(6-(2-(2-fluoro-5-(2,2,2-trifluoroethoxy)benzyl)-2H-tetrazol-5-yl)pyridin-2-yl)-2-hydroxypropane-1-sulfonamide] | 0.8
CC(O)(CS(N)(=O)=O)c1cccc(-c2nnn(Cc3cc(OCC(F)(F)F)ccc3F)n2)n1 (single isomer, unassigned) [Example 30, (R or S)-2-(6-(2-(2-fluoro-5-(2,2,2-trifluoroethoxy)benzyl)-2H-tetrazol-5-yl)pyridin-2-yl)-2-hydroxypropane-1-sulfonamide] | 1
CC(O)(CS(N)(=O)=O)c1nc(-c2nnn(Cc3cc(OC(F)(F)F)ccc3F)n2)ccc1Cl (single isomer, unassigned) [Example 42, (R or S)-2-(3-chloro-6-(2-(2-fluoro-5-(trifluoromethoxy)benzyl)-2H-tetrazol-5-yl)pyridin-2-yl)-2-hydroxypropane-1-sulfonamide] | 12
CC(O)(CS(N)(=O)=O)c1nc(-c2nnn(Cc3cc(OC(F)(F)F)ccc3F)n2)ccc1Cl (single isomer, unassigned) [Example 43, (R or S)-2-(3-chloro-6-(2-(2-fluoro-5-(trifluoromethoxy)benzyl)-2H-tetrazol-5-yl)pyridin-2-yl)-2-hydroxypropane-1-sulfonamide] | 8.2
CC(C(O)c1cccc(-c2nnn(Cc3cc(OC(F)(F)F)ccc3F)n2)n1)S(N)(=O)=O (single isomer, unassigned) [Example 49, (JR or 1S,2R or 2S)-1-(6-(2-(2-fluoro-5-(trifluoromethoxy)benzyl)-2H-tetrazol-5-yl)pyridin-2-yl)-1-hydroxypropane-2-sulfonamide] | 5.7
CC(C(O)c1cccc(-c2nnn(Cc3cc(OC(F)(F)F)ccc3F)n2)n1)S(N)(=O)=O (single isomer, unassigned) [Example 50, (JR or 1S,2R or 2S)-1-(6-(2-(2-fluoro-5-(trifluoromethoxy)benzyl)-2H-tetrazol-5-yl)pyridin-2-yl)-1-hydroxypropane-2-sulfonamide] | 6.6
CC(O)(CS(N)(=O)=O)c1cccc(-c2cnn(Cc3cc(OC(F)(F)F)ccc3F)n2)n1 (single isomer, unassigned) [Example 62, (R or S)-2-(6-(2-(2-fluoro-5-(trifluoromethoxy)benzyl)-2H-1,2,3-triazol-4-yl)pyridin-2-yl)-2-hydroxypropane-1-sulfonamide] | 3.4
